# Reference: patent US6841177B1, “Pharmacological activities of curcuma longa extracts” (ASAC Compania de Biotecnologia e Investigacion S.A., priority 1999, dated 2005)
# “Also recorded” adds a separate entry of the source.
# Tested on: HaCat cells
# Assay: Incorporation of BrdU in the DNA of human keratinocytes after radiation with ultraviolet light
# Format: cell-based
# Description: Culture of the HaCat line
# The HaCat line is an immortalized line of normal human keratinocytes. These cells grow in a culture medium consisting of Hanks liquid to which 5% of foetal bovine serum and 2% of penicillin-streptomycin is added at 37° C. in a CO2 atmosphere.
# To determine the replication rate, the cells were grown in microplates at a density of 2*10^4 cells per matrix. After 24 hours of treatment, the media was renewed and the cultures were incubated for 24 hours at 37° C. with different concentrations of the extracts and different concentrations of the curcumin and psoralen. Parallel controls were carried out with the solvent (ethanol 0.1%). The incorporation of BrdU was determined with the ELISA test.
# The cells were radiated with UVA light at an intensity of 1 J/cm^2 and the incorporation of BrdU was then analysed.
# [1] = after UVA radiation, human keratinocytes
Structure (SMILES),amount for 20 % incorporation of BrdU [1] [ng],amount for 40 % incorporation of BrdU [1] [ng],amount for 60 % incorporation of BrdU [1] [ng],amount for 80 % incorporation of BrdU [1] [ng],toxicity at the dose giving the same photosensitivisation as Curcuma extracts (10 ng/ml),"dose required to produce the same level of photosensitivisation as Curcuma extracts (after UV radiation, BrdU incorporation) [ng/mL]"
COc1cc(/C=C/C(=O)CC(=O)/C=C/c2ccc(O)c(OC)c2)ccc1O [curcumin],1200,1000,800,600,,
O=c1ccc2cc3ccoc3cc2o1 [psoralen],,,,,toxic doses; also recorded: toxic and mutagenic effects are produced,10
